Values joined by “and” are separate entries in the source; they are usually repeats but may differ in a detail not shown here. Equal values may be shown once.
Experiments:
[1] = tested on: Nrf2; assay: Nrf2 nuclear translocation by Western blotting; format: cell-based, human; conditions: 5 μM; for nuclear translocation of Nrf2: 1, 3 and 6 h; for treatment time of maximum ratio between nuclear and cytosolic Nrf2 levels: 1, 3 and 6 h tested
Experimental: In light of these findings, 4 and 5 emerged as the most promising to be further studied regarding their effect on the Nrf2/ARE pathway. […] The maximum ratio between nuclear and cytosolic Nrf2 levels was detected after a 3 h treatment for both compounds, while a slight reduction was observed after 6 h.
(§1) Figure 5 Effects of compounds 4 and 5 on the Nrf2/ARE signaling pathway (A and B) and NQO1 gene expression (C) in SH-SY5Y cells. (A) Cells were treated with compounds 4 and 5 (5 μM) for different times (1, 3, and 6 h). Translocation of Nrf2 from the cytosol to the nucleus was evaluated by Western blotting. Data are expressed as a ratio between nuclear Nrf2 and cytoplasmic Nrf2 levels and reported as mean ± SEM of at least three independent experiments. (B) Cells were treated with compounds 4 and 5 (5 μM) and DMF (5 μM) for 6 h. The Nrf2/ARE binding activity was determined by an ELISA assay. Results are expressed as fold increase versus untreated cells and reported as mean ± SEM of at least three independent experiments (** p < 0.01 and * p < 0.05 versus untreated cells at the t-test). (C) Cells were treated with compounds 4 and 5 (5 μM) for different times (6, 12, and 24 h). The NQO1 expression was determined by RT-PCR. Results are expressed as the relative normalized expression and reported as mean ± SEM of at least three independent experiments (*** p < 0.001 versus untreated cells at one-way ANOVA with the Dunnett post hoc test).

[2] = tested on: SH-SY5Y cells; assay: Neuroprotection against 6-OHDA, MTT assay; format: cell-based, human; conditions: 5 μM for 24 h, then 6-OHDA 100 μM for 2 h
Experimental: (§2) Figure 6 Effects of 4 and 5 on neurotoxicity induced by OAβ1–42 oligomers and 6-OHDA in SH-SY5Y cells. (A) Cells were incubated with 4 and 5 (5 μM, for 24 h) and then treated with OAβ1–42 (10 μM, for 4 h). (B) Cells were incubated with compounds 4 and 5 (5 μM, for 24 h), then treated with 6-OHDA (100 μM, for 2 h), and then starved in complete medium for 22 h. The neurotoxicity was evaluated by an MTT assay. Data are expressed as percentages of neurotoxicity versus cells treated with Aβ1–42 oligomers or 6-OHDA and reported as mean ± SEM of at least three independent experiments (* p < 0.05 versus cells treated with 6-OHDA at one-way ANOVA with the Dunnett post hoc test).
The neurotoxin 6-OHDA provides an in vitro lesion model by inducing CNS oxidative damage and neuroinflammation suitable for assessing the neuroprotective potential of PD therapeutics.[34] Consistent with these effects, 6-OHDA (100 μM, for 2 h) was employed to induce damage in SH-SY5Y cells previously treated with 4 and 5 (5 μM, for 24 h).
Then, cells were treated with 6-hydroxydopamine (6-OHDA, 100 μM) for 2 h and starved in complete medium for 22 h. The neuroprotective activity was measured by using the MTT assay as previously described.[47] Data are expressed as a percentage of neurotoxicity versus untreated cells.

[3] = molecular target: GSK-3β (Homo sapiens, UniProt P49841); assay: GSK-3β inhibition, luminescent kinase assay (Kinase-Glo); conditions: for IC50: GSK-3β inhibition IC50 (μM) ± SEM, human recombinant enzyme, luminescence method
Experimental: A kinetic study was performed in which the concentrations of both ATP and tested compounds were varied, while the concentration of the substrate was kept constant.
GSK-3β inhibition . Kinase-Glo assays (Promega Biotech Iberica, SL) were performed in assay buffer using
black 96-well plates. In a typical assay, 10 µl (10 µM) of test compound (dissolved in DMSO at 1 mM concentration and diluted in advance in assa y buffer to the desired concentration) and 10 µL (20 ng) of
enzyme were added to each well followed by 20 µl of assay buffer containing 50 µM substrate and 2 µM ATP.
After 30 -min incu bation at 30 °C
the enzymatic reaction was stopped with 40 µL of Kinase -Glo reagent. Glow -type luminescence was recorded
after 10 min using a FLUOstar Optima (BMG Labtechnologies GmbH, Offenburg Germany) multimode reader.
The activity is proportional to th e difference in the total and consumed ATP. The inhibitory activities were
calculated on the basis of maximal activities measured in the absence of inhibitor. The IC 50 was defined as the concentration of each compound that reduces a 50 % the enzymatic activity with respect to that without
inhibitors. Five different concentrations by duplicate were used to determine the dose/response curve.

[4] = tested on: NQO1; assay: NQO1 gene expression by RT-PCR; format: cell-based, human; conditions: 5 μM, after 12 and 24 h of treatment
Experimental: as §1
To further confirm the increase in Nrf2 transcriptional activity upon treatment with 4 and 5, the mRNA levels of NQO1, a Nrf2 target gene, were evaluated in SH-SY5Y cells (Figure 5C). […]

[5] = tested on: TagGFP2-α-syn SH-SY5Y cells; assay: α-syn aggregates induced by 6-OHDA, fluorescence microscopy; format: cell-based, human; conditions: 5 μM for 24 h, then 6-OHDA 100 μM for 2 h
Experimental: Assessment of the α-syn aggregate formation was performed to corroborate the above results. TagGFP2-α-syn SH-SY5Y cells were treated for 24 h with 5 μM of 4 and 5 and then with 100 μM of 6-OHDA. After a 2 h incubation, the presence of α-syn aggregates was visualized by fluorescence microscopy analysis and quantified (Figure 7).
Figure 7 Effects of compounds 4 and 5 on α-syn aggregates induced by 6-OHDA in TagGFP2-α-syn SH-SY5Y cells. Cells were treated with compounds 4 and 5 (5 μM, for 24 h) and then with 6-OHDA (100 μM, for 2 h). At the end of incubation, the α-syn aggregates level was detected by fluorescence microscope. (A) Representative images of α-syn aggregates. (B) Quantification of the α-syn aggregates level. Data are expressed as mean fluorescence intensity ± SEM of at least three independent experiments (§§ p < 0.01 vs untreated cells, * p < 0.05 vs cells treated with 6-OHDA at one-way ANOVA with the Bonferroni post hoc test). Scale bars: 50 μm.
At the end of incubation, the aggregation of α-synuclein was detected using an inverted fluorescent microscope (Eclipse Ti-E, Nikon Instruments Spa, Florence, Italy). The intensity of fluorescence was directly proportional to the aggregation of α-synuclein. Data are expressed as arbitrary units of fluorescence.

[6] = tested on: SH-SY5Y cells; assay: Neuroprotection against Aβ1–42 oligomers, MTT assay; format: cell-based, human; conditions: 5 μM for 24 h, then OAβ1–42 10 μM for 4 h
Experimental: Intracellular accumulation of soluble Aβ1–42 oligomers is responsible for neurotoxic effects, such as neuronal death, and represents a key event in AD pathogenesis.[33] […] Briefly, SH-SY5Y cells were incubated with 5 μM concentration of the selected analogues for 24 h, followed by OAβ1–42 oligomers treatment (10 μM) for 4 h (Figure 6A).
as §2, with “test). […]” for “test).”
Then, cells were treated with Aβ1–42 oligomers for 4 h. The neuroprotective activity, in terms of an increase in intracellular MTT granules, was measured by an MTT assay, as previously described (see the Supporting Information for experimental details).[46]

GSK-3β, sequence (P49841 whole entry): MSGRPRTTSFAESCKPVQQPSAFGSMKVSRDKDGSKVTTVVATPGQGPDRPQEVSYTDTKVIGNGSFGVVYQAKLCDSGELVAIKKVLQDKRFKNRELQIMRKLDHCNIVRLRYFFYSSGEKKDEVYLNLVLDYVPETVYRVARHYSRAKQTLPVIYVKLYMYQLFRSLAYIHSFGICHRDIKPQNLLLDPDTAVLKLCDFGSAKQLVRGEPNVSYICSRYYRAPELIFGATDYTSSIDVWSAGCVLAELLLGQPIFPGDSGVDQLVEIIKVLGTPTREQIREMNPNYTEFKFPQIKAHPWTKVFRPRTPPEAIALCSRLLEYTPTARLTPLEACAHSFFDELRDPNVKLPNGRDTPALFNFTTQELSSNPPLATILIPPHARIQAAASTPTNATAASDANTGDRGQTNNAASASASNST

| IC50 [3] | inhibition at 10 µM ([3]; read-out: GSK-3β inhibition, inhibition (%)) | Compound | nuclear translocation of Nrf2 [1] | treatment time of maximum ratio between nuclear and cytosolic Nrf2 levels [1] | protection against 6-OHDA-induced decrease in cell viability [2] | NQO1 mRNA levels [4] | levels of α-syn aggregates elicited by 6-OHDA [5] | prevention of Aβ1–42 oligomers-induced cell death [6] |
| --- | --- | --- | --- | --- | --- | --- | --- | --- |
| > 10 µM | 40% | CCOC(=O)/C=C/C(C(=O)/C=C/c1ccc(OC)cc1)=C(O)\C=C\c1ccc(OC)cc1 [Compound 4, Ethyl (2E,4Z,6E)-5-Hydroxy-7-(4-methoxyphenyl)-4-((E)-3-(4-methoxyphenyl)acryloyl)hepta-2,4,6-trienoate] | induce the nuclear translocation of Nrf2 | 3 h | mitigate the 6-OHDA-induced decrease in cell viability | significant ability to increase NQO1 mRNA levels | significantly decrease the levels of toxic α-syn aggregates | failed to prevent Aβ1–42 oligomers-induced cell death |
| 8.4 µM and 8.39 µM |  | CCOC(=O)/C=C/C(C(=O)/C=C/c1ccc(OC)cc1)=C(O)\C=C\c1ccc(OCc2ccccc2)cc1 [Compound 5, Ethyl (2E,4Z,6E)-7-(4-(Benzyloxy)phenyl)-5-hydroxy-4-((E)-3-(4-methoxyphenyl)acryloyl)hepta-2,4,6-trienoate] | induce the nuclear translocation of Nrf2 | 3 h | mitigate the 6-OHDA-induced decrease in cell viability | significant ability to increase NQO1 mRNA levels | significantly decrease the levels of toxic α-syn aggregates | failed to prevent Aβ1–42 oligomers-induced cell death |

From publication PMC8009478, “Novel Curcumin-Diethyl Fumarate Hybrid as a Dualistic GSK-3β Inhibitor/Nrf2 Inducer for the Treatment of Parkinson’s Disease” (ACS Chemical Neuroscience, 2020)
